In US20250320224A1 (DOMAIN THERAPEUTICS, priority 2022, published 2025):
Counter-ions that a name gives are not always drawn.

Molecular target: T1, human PAR-2 (hPAR-2) receptor (Homo sapiens, UniProt P55085)
T1 construct: expressed in HEK-293 cells in an endogenous manner; endogenous in cells; host or cells: HEK-293
T1 sequence (P55085 26-397): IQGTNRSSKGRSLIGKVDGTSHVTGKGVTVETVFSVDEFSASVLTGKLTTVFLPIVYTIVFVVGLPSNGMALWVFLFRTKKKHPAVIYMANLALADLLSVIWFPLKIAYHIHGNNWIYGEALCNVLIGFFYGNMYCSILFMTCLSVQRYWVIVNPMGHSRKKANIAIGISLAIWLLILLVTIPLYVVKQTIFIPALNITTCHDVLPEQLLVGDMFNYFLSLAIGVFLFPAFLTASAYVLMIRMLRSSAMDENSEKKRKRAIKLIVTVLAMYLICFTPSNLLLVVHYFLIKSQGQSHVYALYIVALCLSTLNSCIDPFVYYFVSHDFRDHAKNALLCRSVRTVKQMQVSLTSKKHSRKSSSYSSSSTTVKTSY
Assay: In vitro human PAR-2 functional antagonist activity using calcium assays
Type: cell-based
Conditions: hPAR-2 endogenously expressed in HEK-293 cells; stimulated by 2-Furoyl-LIGRLO-NH2 peptide; Fluo4AM intracellular calcium, FLIPR Tetra
Method: Example 283: In Vitro Human PAR-2 Functional Antagonist Activity Using Calcium Assays
Examples of the present invention were tested successively for their agonist and antagonist activities on human PAR-2 (hPAR-2) receptor expressed in HEK-293 cells in an endogenous manner. Compounds exert agonist activity if, by themselves in absence of the 2-Furoyl-LIGRLO-NH2 peptide (selective hPAR-2 agonist), they activate PAR-2; they exert antagonist activity if they decrease the action of the 2-Furoyl-LIGRLO-NH2 peptide on the receptor. The assay used to determine compound activity is based on calcium measurement.
Cell Culture: HEK-293 cells were maintained in Dulbecco's Modified Eagle's Medium supplemented with 10% Foetal Calf Serum, 1% Penicillin/Streptomycin at 37° C./5% CO2. Flasks for tests (F75) are seeded with 6e+06 cells 24 h before the experiment at 37° C./5% CO2.
Calcium assay: Receptor activity was detected by changes in intracellular calcium measured using the fluorescent Ca^2+ sensitive dye, Fluo4AM (Molecular Probes).
The day of the assay, medium was replaced by assay buffer (HBSS 1× (Gibco 14175-053), Hepes 20 mM, MgSO4-7H2O 1 mM, Na2CO3 3.3 mM, CaCl2—2H2O 2.6 mM, 0.5% bovine serum albumin (BSA), Probenecid 2.5 mM, 0.1 mg/mL Pluronic Acid) and complemented with 1 μM Fluo4AM and cells were incubated during 1:30 h at 37° C.
Cells were then detached, resuspended in assay buffer and seeded in 384 wells, transparent-flat bottom black walled plates (2e+04 cells per well). Plates were incubated at +22° C. for 20 min. Compounds stock solutions were prepared in 100% DMSO and dilutions in test buffer were carried out in polypropylene plates with a digital dispenser (D300e, Tecan). Compounds were added to the cells and intracellular Ca^2+ measurements were collected at the same time on FLIPR Tetra® (Molecular Devices) with specific filters (Exc: 470-495 nm/Em: 515-575 nm).
Agonist and antagonist activities of compounds were consecutively evaluated on the same cell plate. Agonist activity was first measured after 10 min incubation with the compound alone. Then, cells were stimulated by an […] of the 2-Furoyl-LIGRLO-NH2 peptide and fluorescence was recorded for an additional 5 min. EC50 of the 2-Furoyl-LIGRLO-NH2 peptide was the concentration giving 80% of the maximal 2-Furoyl-LIGRLO-NH2 response. Agonist activities are evaluated in comparison to basal signals evoked by assay buffer or maximal 2-Furoyl-LIGRLO-NH2 response. […] Antagonist activities are evaluated in comparison to basal signals evoked by assay buffer or EC50 of 2-Furoyl-LIGRLO-NH2 alone.

| SMILES | IC50 [nM] |
| --- | --- |
| CC1(C)CN(c2ccc(Cl)c(F)c2)c2ccc(C(=O)N3CCC(C(=O)O)CC3)nc21 [Example 33, 1-(1-(4-chloro-3-fluorophenyl)-3,3-dimethyl-2,3-dihydro-1H-pyrrolo[3,2-b]pyridine-5-carbonyl)piperidine-4-carboxylic acid] | 500 to 10000 |
| CC1(C)CN(c2ccc(Cl)c(F)c2)c2ccc(C(=O)N3CCC(CC(=O)O)CC3)nc21 [Example 35, 2-(1-(1-(4-chloro-3-fluorophenyl)-3,3-dimethyl-2,3-dihydro-1H-pyrrolo[3,2-b]pyridine-5-carbonyl)piperidin-4-yl)acetic acid] | 500 to 10000 |
| CO[C@H]1CN(C(=O)c2ccc3c(n2)C(C)(C)CN3c2ccc(Cl)c(F)c2)CC[C@H]1CC(=O)O [Example 37, 2-((3R,4S)-1-(1-(4-chloro-3-fluorophenyl)-3,3-dimethyl-2,3-dihydro-1H-pyrrolo[3,2-b]pyridine-5-carbonyl)-3-methoxypiperidin-4-yl)acetic acid] | 500 to 10000 |
| Cc1nc(N2CCN(C(=O)c3ccc4c(n3)C(C)(C)CN4c3ccc(Cl)c(F)c3)C(C)(C)C2)ncc1C(=O)O [Example 39, 2-(4-(1-(4-chloro-3-fluorophenyl)-3,3-dimethyl-2,3-dihydro-1H-pyrrolo[3,2-b]pyridine-5-carbonyl)-3,3-dimethylpiperazin-1-yl)-4-methylpyrimidine-5-carboxylic acid hydrochloride] | < 500 |
| CC1(C)CN(c2ccc(Cl)c(F)c2)c2ccc(C(=O)N3CCN(c4ncc(C(=O)O)cn4)CC3(C)C)nc21 [Example 41, 2-(4-(1-(4-chloro-3-fluorophenyl)-3,3-dimethyl-2,3-dihydro-1H-pyrrolo[3,2-b]pyridine-5-carbonyl)-3,3-dimethylpiperazin-1-yl)-pyrimidine-5-carboxylic acid hydrochloride] | < 500 |
| CC1(C)CN(c2ccc(Cl)c(F)c2)c2ccc(C(=O)N3CCN(c4nc(C(=O)O)cs4)CC3(C)C)nc21 [Example 43, 2-(4-(1-(4-chloro-3-fluorophenyl)-3,3-dimethyl-2,3-dihydro-1H-pyrrolo[3,2-b]pyridine-5-carbonyl)-3,3-dimethylpiperazin-1-yl)thiazole-4-carboxylic acid] | < 500 |
| Cc1cc(N2CCN(C(=O)c3ccc4c(n3)C(C)(C)CN4c3ccc(Cl)c(F)c3)C(C)(C)C2)nc(C)c1C(=O)O [Example 45, 6-(4-(1-(4-chloro-3-fluorophenyl)-3,3-dimethyl-2,3-dihydro-1H-pyrrolo[3,2-b]pyridine-5-carbonyl)-3,3-dimethylpiperazin-1-yl)-2,4-dimethylnicotinic acid] | < 500 |
| C[C@H](CC(=O)O)N(C)C(=O)c1ccc2c(n1)C(C)(C)CN2c1ccc(Cl)c(F)c1 [Example 47, (R)-3-(1-(4-chloro-3-fluorophenyl)-N,3,3-trimethyl-2,3-dihydro-1H-pyrrolo[3,2-b]pyridine-5-carboxamido)butanoic acid] | 500 to 10000 |
| CN(C(=O)c1ccc2c(n1)C(C)(C)CN2c1ccc(Cl)c(F)c1)C1(C(N)=O)CC1 [Example 48, N-(1-carbamoylcyclopropyl)-1-(4-chloro-3-fluorophenyl)-N,3,3-trimethyl-2,3-dihydro-1H-pyrrolo[3,2-b]pyridine-5-carboxamide] | 500 to 10000 |
| Cc1cc(N(C)CCN(C)C(=O)c2ccc3c(n2)C(C)(C)CN3c2ccc(Cl)c(F)c2)nc(C)c1C(=O)O [Example 50, 6-((2-(1-(4-chloro-3-fluorophenyl)-N,3,3-trimethyl-2,3-dihydro-1H-pyrrolo[3,2-b]pyridine-5-carboxamido)ethyl)(methyl)amino)-2,4-dimethylnicotinic acid] | 500 to 10000 |
| CC(C)(CO)NC(=O)c1ccc2c(n1)C(C)(C)CN2c1ccc(Cl)c(F)c1 [Example 51, 1-(4-chloro-3-fluorophenyl)-N-(1-hydroxy-2-methylpropan-2-yl)-3,3-dimethyl-2,3-dihydro-1H-pyrrolo[3,2-b]pyridine-5-carboxamide] | 500 to 10000 |
| CC(C)(O)CNC(=O)c1ccc2c(n1)C(C)(C)CN2c1ccc(Cl)c(F)c1 [Example 52, 1-(4-chloro-3-fluorophenyl)-N-(2-hydroxy-2-methylpropyl)-3,3-dimethyl-2,3-dihydro-1H-pyrrolo[3,2-b]pyridine-5-carboxamide] | > 10000 |
| CCC1(C)CN(c2ccc(Cl)c(F)c2)c2ccc(C(=O)N3CCNC(=O)C3(C)C)nc21 (stereo not drawn) [Example 53, 4-(1-(4-chloro-3-fluorophenyl)-3-ethyl-3-methyl-2,3-dihydro-1H-pyrrolo[3,2-b]pyridine-5-carbonyl)-3,3-dimethylpiperazin-2-one] | < 500 |
| CCC1(C)CN(c2ccc(Cl)c(F)c2)c2ccc(C(=O)NC3(C(N)=O)CC3)nc21 (stereo not drawn) [Example 54, N-(1-carbamoylcyclopropyl)-1-(4-chloro-3-fluorophenyl)-3-ethyl-3-methyl-2,3-dihydro-1H-pyrrolo[3,2-b]pyridine-5-carboxamide] | 500 to 10000 |
| CC1(C)C(=O)NCCN1C(=O)c1ccc2c(n1)C1(CCOCC1)CN2c1ccc(Cl)c(F)c1 [Example 55, 4-(1′-(4-chloro-3-fluorophenyl)-1′,2,2′,3,5,6-hexahydrospiro[pyran-4,3′-pyrrolo[3,2-b]pyridine]-5′-carbonyl)-3,3-dimethylpiperazin-2-one] | < 500 |
| Cc1cc(N2CCN(C(=O)c3ccc4c(n3)C3(CCOCC3)CN4c3ccc(Cl)c(F)c3)C(C)(C)C2)nc(C)c1C(=O)O [Example 56, 6-(4-(1′-(4-chloro-3-fluorophenyl)-1′,2,2′,3,5,6-hexahydrospiro[pyran-4,3′-pyrrolo[3,2-b]pyridine]-5′-carbonyl)-3,3-dimethylpiperazin-1-yl)-2,4-dimethylnicotinic acid] | < 500 |
| CC1(C)C(=O)NCCN1C(=O)c1ccc2c(n1)C1(CC1)CN2c1ccc(Cl)c(F)c1 [Example 57, 4-(1′-(4-chloro-3-fluorophenyl)-1′,2′-dihydrospiro[cyclopropane-1,3′-pyrrolo[3,2-b]pyridine]-5′-carbonyl)-3,3-dimethylpiperazin-2-one] | < 500 |
| CC1(C)C(=O)NCCN1C(=O)c1ccc2c(n1)C1(CCOC1)CN2c1ccc(Cl)c(F)c1 (stereo not drawn) [Example 58, 4-(1′-(4-chloro-3-fluorophenyl)-1′,2′,4,5-tetrahydro-2H-spiro[furan-3,3′-pyrrolo[3,2-b]pyridine]-5′-carbonyl)-3,3-dimethylpiperazin-2-one] | < 500 |
| Cc1cc(N2CCN(C(=O)c3ccc4c(n3)C3(CCOC3)CN4c3ccc(Cl)c(F)c3)C(C)(C)C2)nc(C)c1C(=O)O (stereo not drawn) [Example 60, 6-(4-(1′-(4-chloro-3-fluorophenyl)-1′,2′,4,5-tetrahydro-2H-spiro[furan-3,3′-pyrrolo[3,2-b]pyridine]-5′-carbonyl)-3,3-dimethylpiperazin-1-yl)-2,4-dimethylnicotinic acid hydrochloride] | < 500 |
| CC1(C)CN(c2ccc(Cl)c(F)c2)c2ccc(C(=O)N3CCN(c4ccc(CC(=O)O)cn4)CC3(C)C)nc21 [Example 65, 2-(6-(4-(1-(4-chloro-3-fluorophenyl)-3,3-dimethyl-2,3-dihydro-1H-pyrrolo[3,2-b]pyridine-5-carbonyl)-3,3-dimethylpiperazin-1-yl)pyridin-3-yl)acetic acid] | < 500 |
| CC1(C)CN(c2ccc(Cl)c(F)c2)c2ccc(C(=O)N3CCN(c4nncs4)CC3(C)C)nc21 [Example 67, (1-(4-chloro-3-fluorophenyl)-3,3-dimethyl-2,3-dihydro-1H-pyrrolo[3,2-b]pyridin-5-yl)(2,2-dimethyl-4-(1,3,4-thiadiazol-2-yl)piperazin-1-yl)methanone] | < 500 |
